Experimental data taken from patent US6376673B1, “Piperidine derivatives as neurotransmitter re-uptake inhibitors” (Neurosearch A/S, priority 1997, dated 2002).

Target: T1, dopamine transporter (Rattus norvegicus, UniProt P23977)
T1 construct: Corpus striatum from male Wistar rats (150-200 g) is homogenized; from tissue; host or cells: rat corpus striatum membrane pellet
Assay: In vitro inhibition of 3H-WIN 35428 binding
Conditions: corpus striatum membranes of male Wistar rats; 1 nM 3H-WIN 35428, 60 min at 2° C.; read-out: In Vitro IC50 (inhibition of specific binding of 3H-WIN 35428)
Description: The compounds of the present invention have been tested for their ability to bind to the dopamine transporter in the following tests for in vitro inhibition of ^3H-WIN 35428.
In vitro Inhibition of ^3H-WIN 35428 Binding
Dopamine transporters/uptake sites on nerve terminals presumably function to terminate neuronal signaling by removing dopamine from the synaptic cleft. The activity or presence of the dopamine transporter integral protein can be measured in vitro with synaptosomal uptake of ^3H-dopamine or membrane binding assays with ^3H-ligands known to bind to the transporter.
Numerous ligands of several structural types have been reported to bind at the dopamine uptake site, but it remains questionable whether their binding sites are identical to that of cocaine. A structural analog og cocaine, ^3H-WIN 35428, binds selectively and with high affinity to the dopamine transporter complex.
Tissue preparation: Preparations are performed at 0-4° C. unless otherwise indicated. […]
Assay: Aliquots of 0.5 ml tissue are added to 25 ml of test solution and 25 ml of ^3H-WIN 35428 (1 nM, final concentration), mixed and incubated for 60 min at 2° C. Non-specific binding is determined using cocaine (30 mM, final concentration). […] The amount of radioactivity on the filters is determined by conventional liquid scintillation counting. […]

T1 sequence (P23977 whole entry): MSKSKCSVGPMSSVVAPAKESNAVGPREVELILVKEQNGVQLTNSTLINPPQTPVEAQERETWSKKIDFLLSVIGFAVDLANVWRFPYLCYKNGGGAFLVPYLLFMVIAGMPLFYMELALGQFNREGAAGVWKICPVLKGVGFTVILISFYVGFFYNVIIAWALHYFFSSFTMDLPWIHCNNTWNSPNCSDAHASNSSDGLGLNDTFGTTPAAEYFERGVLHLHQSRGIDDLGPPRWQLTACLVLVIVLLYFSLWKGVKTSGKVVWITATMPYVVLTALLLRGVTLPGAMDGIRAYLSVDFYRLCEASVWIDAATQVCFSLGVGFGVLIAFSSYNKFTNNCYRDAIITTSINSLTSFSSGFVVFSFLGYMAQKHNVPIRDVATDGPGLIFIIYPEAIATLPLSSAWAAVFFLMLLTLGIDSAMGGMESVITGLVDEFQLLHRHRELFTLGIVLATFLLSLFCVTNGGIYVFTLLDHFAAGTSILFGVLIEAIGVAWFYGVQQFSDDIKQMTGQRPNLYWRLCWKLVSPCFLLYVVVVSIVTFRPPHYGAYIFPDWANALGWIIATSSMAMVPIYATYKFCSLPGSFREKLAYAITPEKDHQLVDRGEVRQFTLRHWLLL

CON=CC1CN(C)CCC1c1ccc(Cl)c(Cl)c1 (stereo not shown) [1-Metyl-3-methoxyiminomethyl-4-(3,4-dichlorophenyl)piperidine]
IC50: 0.016 µM
